Values quoted from earlier work in publication PMC2978073 (Journal of medicinal chemistry, 2010).

Key:
[1] = tested on: rabbit model for cerebral palsy
[2] = compared with 3

Cc1cc(N)nc(C[C@H]2CNC[C@H]2NCCNCc2ccc(Cl)cc2)c1 (racemic) [(±)-2]
effect on eNOS-regulated blood pressure [1]: without affecting eNOS-regulated blood pressure
hypoxia-ischemia induced death [1]: prevent hypoxia-ischemia induced death
number of newborn kits exhibiting cerebral palsy phenotype [1]: reduce the number of newborn kits exhibiting cerebral palsy phenotype

Cc1cc(N)nc(C[C@H]2CNC[C@H]2NCCNCCc2cccc(F)c2)c1 (racemic) [(±)-3]
effect on eNOS-regulated blood pressure [1]: without affecting eNOS-regulated blood pressure
hypoxia-ischemia induced death [1]: prevent hypoxia-ischemia induced death
number of newborn kits exhibiting cerebral palsy phenotype [1]: reduce the number of newborn kits exhibiting cerebral palsy phenotype

Cc1cc(N)nc(C[C@H]2CNC[C@H]2OCCNCCc2cccc(F)c2)c1 (racemic) [(±)-4]
bioavailability [2]: improved bioavailability
